Legend:
[1] = test system: human RPMI8226 multiple myeloma; assay: Human RPMI8226 multiple myeloma xenograft in female nude mice (TMU-RPMI8226-e0001); assay type: in vivo
Excerpt: The 42-day study utilized five groups of mice (n=6) bearing established human PRMI8226 multiple myeloma with mean volumes of ˜85 mm^3 on D1. […] (FIG. 3).

ROCK2 = ROCK2 (Homo sapiens, UniProt O75116); assay: Protein kinase assay (Kinome assay); assay type: binding
Excerpt: (§1) The compounds of the invention were subjected to protein kinase assay.

RIOK2 = RIOK2 (Homo sapiens, UniProt Q9BVS4); assay: Protein kinase assay (Kinome assay); assay type: binding
Excerpt: as §1

DYRK1B = DYRK1B (Homo sapiens, UniProt Q9Y463); assay: Protein kinase assay (Kinome assay); assay type: binding
Excerpt: as §1

JNK3 = JNK3 (Homo sapiens, UniProt P53779); assay: Protein kinase assay (Kinome assay); assay type: binding
Excerpt: as §1

CSNK1D = CSNK1D (Homo sapiens, UniProt P48730); assay: Protein kinase assay (Kinome assay); assay type: binding
Excerpt: as §1

PCTK1 = PCTK1 (Homo sapiens, UniProt Q00536); assay: Protein kinase assay (Kinome assay); assay type: binding
Excerpt: as §1

JNK1 = JNK1 (Homo sapiens, UniProt P45983); assay: Protein kinase assay (Kinome assay); assay type: binding
Excerpt: as §1

[2] = test system: human MDA-MB-231 breast adenocarcinoma; assay: Human MDA-MB-231 breast cancer xenograft in female nude mice (TMU-MDA-MB-231-e0002)
[3] = test system: adjuvant-induced arthritis (AIA); assay: Adjuvant-induced arthritis (AIA) model; assay type: in vivo, Lewis rats
Procedure: In vivo adjuvant-induced arthritis (AIA) model. Five-week-old male Lewis rats were obtained from the National Laboratory Animal Center (Taipei, Taiwan). Complete Freund's adjuvant (CFA) was prepared by suspending heat-killed Mycobacterium butyricum (Difco) in mineral oil at 3 mg/mL. CFA-induced arthritis was induced by intradermal injection of 100 μL, of the CFA emulsion into the base of the right hind paw on day 0. […] On days 0, 2, 6, 9, 13, 17, and 21, the animals were weighed and both hind paw volumes measured using a digital plethysmometer (Diagnostic & Research Instruments Co. Ltd, Taipei, Taiwan). On day 21, micro-computed tomography (micro-CT) of the paws was performed by the Core Facilities Center of the National Research Program for Biopharmaceuticals using an in vivo micro-CT scanner (Skyscan 1176, Bruker Corp., Kontich, Belgium) at 18 μm resolution and 180° scanning with a rotation step of 0.8o per image, 300 msec integration time, 70 keV photon energy, and 350 μA current.
Quantification of volumetric bone mineral density (BMD) and bone volume (BV) was performed in a defined bone area ranging 12 mm from tarsals to the end of the calcaneus. The bone mineral content (BMC) was described by the product of BV and BMD.

[4] = test system: IL-6 production in murine RAW264.7 macrophage cells; assay: IL-6 production in LPS-stimulated RAW264.7 macrophage cells (ELISA); assay type: cell-based; conditions: Mus musculus, RAW 264.7 cells, pretreated 1 h, LPS (25 ng/mL) 24 h
Procedure: Cell culture. The RAW264.7 mouse macrophage cells were purchased from the Bioresource Collection and Research Center (Hsinchu, Taiwan) and the cells cultured at 37° C. in 5% CO2/95% air in, respectively, 90% Ham's F-12 or Dulbecco's modified Eagle medium, both containing 10% heat-inactivated fetal bovine serum (FBS) (Invitrogen Life Technologies, Carlsbad, CA) and 1% penicillin/streptomycin (Biological Industries, Israel).
IL-6 Determination. To determine the effect of MPT0L056 on the production of cytokine IL-6 from LPS-stimulated cells, RAW 264.7 cells (1×10^6) were plated and pretreated in the presence or absence of MPT0L056 for 1 h, and then stimulated with LPS (25 ng/mL) for 24 h at 37° C. Supernatants were collected and the concentration of cytokines IL-6 was measured by ELISA kit.

MDA-MB-231 = assay: Growth inhibition assay; assay type: cell-based; conditions: Homo sapiens; MDA-MB-231 (Breast cancer), 48 hours; read-out: GI50
Procedure: (§2) Cells were seeded in 96-well plastic plates and exposed to MPT0L056 for 48 hours. Cell viability was assessed using the 3-(4,5-dimethylthiazol-2-yl)-2,5-diphenyltetrazolium bromide assay. Growth inhibition was expressed as the percentage of surviving cells in drug-treated versus DMSO-treated control cells.
(§3) The compounds of the invention were subjected to growth inhibition assay.

HCT-116 = assay: Growth inhibition assay; assay type: cell-based; conditions: Homo sapiens; HCT-116 (Colorectal cancer), 48 hours; read-out: GI50
Procedure: as §2, §3

HL-60 = assay: Growth inhibition assay; assay type: cell-based; conditions: Homo sapiens; HL-60 (Leukemia), 48 hours
Procedure: as §2, §3

Hep 3B = assay: Growth inhibition assay; assay type: cell-based; conditions: Homo sapiens, Hep3B; Hep 3B (Liver cancer), 48 hours; read-out: GI50
Procedure: as §2, §3

[5] = test system: human A2780 ovarian adenocarcinoma; assay: Human A2780 ovarian cancer xenograft in female nude mice (TMU-A2780-e0001); assay type: in vivo
ITCH [6] = biological target: T1, ITCH (Homo sapiens, UniProt Q96J02); assay: Blocking of ITCH self-ubiquitination, in vitro assay; assay type: biochemical; conditions: FIG. 1
Excerpt: (§4) MPT0L056 of the invention was used to test the blocking of ITCH self-ubiquitination. […] [Reference for in vitro assay: Scialpi F, Malatesta M, Peschiaroli A, Rossi M, Melino G, and Bernassola F. Itch self-polyubiquitylation occurs through lysine-63 linkages. Biochem Pharmacol. 2008 Dec. 1; 76(11):1515-21. Reference for in vivo assay: Chang L, Kamata H, Solinas G, Luo J L, Maeda S, Venuprasad K, Liu Y C, and Karin M. The E3 ubiquitin ligase itch couples JNK activation to TNFalpha-induced cell death by inducing c-FLIP(L) turnover. Cell. 2006 Feb. 10; 124(3):601-131

ITCH [7] = biological target: T1, ITCH; assay: Blocking of ITCH self-ubiquitination, in vivo assay; assay type: cell-based; conditions: concentration of 0.5 um and 5 um, FIG. 2
Excerpt: as §4

[8] = MPT0L056 25 mg/kg p.o. once every day for 42 days
[9] = MPT0L056 50 mg/kg p.o. once every day for 42 days

T1 sequence (Q96J02 whole entry, species assumed): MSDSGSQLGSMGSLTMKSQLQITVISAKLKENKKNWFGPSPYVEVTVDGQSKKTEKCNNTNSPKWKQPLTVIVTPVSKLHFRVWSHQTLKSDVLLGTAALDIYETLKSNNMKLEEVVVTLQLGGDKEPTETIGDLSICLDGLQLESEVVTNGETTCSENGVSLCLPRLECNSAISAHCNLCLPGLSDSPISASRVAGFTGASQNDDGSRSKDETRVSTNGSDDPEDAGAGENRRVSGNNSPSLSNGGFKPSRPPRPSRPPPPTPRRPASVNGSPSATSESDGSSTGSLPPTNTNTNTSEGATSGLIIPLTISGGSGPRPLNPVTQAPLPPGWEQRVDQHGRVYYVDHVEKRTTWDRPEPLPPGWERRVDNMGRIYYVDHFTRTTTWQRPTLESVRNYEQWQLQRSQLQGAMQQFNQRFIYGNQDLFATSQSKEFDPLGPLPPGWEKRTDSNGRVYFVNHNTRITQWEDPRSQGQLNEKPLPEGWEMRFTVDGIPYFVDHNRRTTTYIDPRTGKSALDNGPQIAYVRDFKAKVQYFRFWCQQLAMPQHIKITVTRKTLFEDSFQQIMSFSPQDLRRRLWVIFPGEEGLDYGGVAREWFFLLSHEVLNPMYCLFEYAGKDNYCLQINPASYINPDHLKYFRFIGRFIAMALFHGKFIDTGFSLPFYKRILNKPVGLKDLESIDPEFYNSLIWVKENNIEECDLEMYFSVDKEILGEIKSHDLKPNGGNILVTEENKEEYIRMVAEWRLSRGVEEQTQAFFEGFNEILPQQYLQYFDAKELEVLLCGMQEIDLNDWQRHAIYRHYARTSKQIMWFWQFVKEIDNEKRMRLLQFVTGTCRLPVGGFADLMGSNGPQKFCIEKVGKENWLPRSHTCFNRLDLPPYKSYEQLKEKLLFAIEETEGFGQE
DYRK1B, sequence (Q9Y463 whole entry, species assumed): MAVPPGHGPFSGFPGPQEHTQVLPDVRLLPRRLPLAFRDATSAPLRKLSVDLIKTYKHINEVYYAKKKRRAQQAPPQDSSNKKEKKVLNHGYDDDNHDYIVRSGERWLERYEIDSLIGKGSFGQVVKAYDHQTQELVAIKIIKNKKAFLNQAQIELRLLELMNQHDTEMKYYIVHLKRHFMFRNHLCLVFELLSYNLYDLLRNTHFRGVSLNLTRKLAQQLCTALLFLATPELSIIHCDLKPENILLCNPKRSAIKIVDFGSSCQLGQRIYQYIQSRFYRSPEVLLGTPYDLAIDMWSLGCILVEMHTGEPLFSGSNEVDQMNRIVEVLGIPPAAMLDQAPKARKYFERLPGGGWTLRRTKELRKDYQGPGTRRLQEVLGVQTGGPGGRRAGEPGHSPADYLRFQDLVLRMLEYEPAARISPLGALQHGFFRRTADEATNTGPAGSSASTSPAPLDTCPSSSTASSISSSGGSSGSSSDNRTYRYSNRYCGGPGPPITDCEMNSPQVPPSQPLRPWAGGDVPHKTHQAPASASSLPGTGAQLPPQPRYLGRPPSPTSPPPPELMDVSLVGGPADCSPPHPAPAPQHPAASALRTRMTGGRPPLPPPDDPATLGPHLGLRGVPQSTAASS
JNK3, sequence (P53779 whole entry, species assumed): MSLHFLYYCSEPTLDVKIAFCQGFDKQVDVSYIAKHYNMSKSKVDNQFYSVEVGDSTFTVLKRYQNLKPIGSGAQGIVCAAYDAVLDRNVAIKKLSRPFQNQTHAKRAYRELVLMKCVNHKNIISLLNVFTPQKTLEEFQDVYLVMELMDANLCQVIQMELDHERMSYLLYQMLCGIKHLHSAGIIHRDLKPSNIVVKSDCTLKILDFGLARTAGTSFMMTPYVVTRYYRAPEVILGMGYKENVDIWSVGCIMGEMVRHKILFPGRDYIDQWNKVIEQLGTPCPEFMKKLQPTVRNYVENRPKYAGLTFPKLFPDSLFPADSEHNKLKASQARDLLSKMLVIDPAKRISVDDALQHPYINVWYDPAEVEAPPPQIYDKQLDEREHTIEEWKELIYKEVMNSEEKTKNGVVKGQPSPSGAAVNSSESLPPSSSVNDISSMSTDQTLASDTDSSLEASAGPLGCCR
RIOK2, sequence (Q9BVS4 whole entry, species assumed): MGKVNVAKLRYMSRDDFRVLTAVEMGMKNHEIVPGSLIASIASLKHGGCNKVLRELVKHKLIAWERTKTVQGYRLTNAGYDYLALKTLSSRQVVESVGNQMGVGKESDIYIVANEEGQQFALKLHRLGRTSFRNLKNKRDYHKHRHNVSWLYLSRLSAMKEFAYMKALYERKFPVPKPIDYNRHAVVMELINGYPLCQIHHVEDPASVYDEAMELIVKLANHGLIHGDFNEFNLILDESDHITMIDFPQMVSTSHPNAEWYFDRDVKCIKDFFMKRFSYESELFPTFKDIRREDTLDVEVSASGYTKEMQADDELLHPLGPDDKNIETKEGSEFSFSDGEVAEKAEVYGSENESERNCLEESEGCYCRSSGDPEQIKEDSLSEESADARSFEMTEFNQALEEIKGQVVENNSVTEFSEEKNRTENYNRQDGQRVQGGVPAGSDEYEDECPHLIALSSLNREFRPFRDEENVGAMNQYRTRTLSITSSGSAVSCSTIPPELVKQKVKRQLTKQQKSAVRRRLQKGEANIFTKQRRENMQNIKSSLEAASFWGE
JNK1, sequence (P45983 whole entry, species assumed): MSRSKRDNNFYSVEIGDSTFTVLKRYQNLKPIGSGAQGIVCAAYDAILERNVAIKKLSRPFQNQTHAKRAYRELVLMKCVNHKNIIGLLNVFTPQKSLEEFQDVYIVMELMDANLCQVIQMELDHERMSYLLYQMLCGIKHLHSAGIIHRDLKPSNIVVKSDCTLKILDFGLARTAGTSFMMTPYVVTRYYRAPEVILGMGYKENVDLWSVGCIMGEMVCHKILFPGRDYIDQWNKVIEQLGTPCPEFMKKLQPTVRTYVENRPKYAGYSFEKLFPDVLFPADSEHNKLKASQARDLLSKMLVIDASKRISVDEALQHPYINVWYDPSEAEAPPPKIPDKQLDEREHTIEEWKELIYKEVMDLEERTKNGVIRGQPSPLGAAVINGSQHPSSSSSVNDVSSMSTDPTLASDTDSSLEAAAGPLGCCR
ROCK2, sequence (O75116 whole entry, species assumed): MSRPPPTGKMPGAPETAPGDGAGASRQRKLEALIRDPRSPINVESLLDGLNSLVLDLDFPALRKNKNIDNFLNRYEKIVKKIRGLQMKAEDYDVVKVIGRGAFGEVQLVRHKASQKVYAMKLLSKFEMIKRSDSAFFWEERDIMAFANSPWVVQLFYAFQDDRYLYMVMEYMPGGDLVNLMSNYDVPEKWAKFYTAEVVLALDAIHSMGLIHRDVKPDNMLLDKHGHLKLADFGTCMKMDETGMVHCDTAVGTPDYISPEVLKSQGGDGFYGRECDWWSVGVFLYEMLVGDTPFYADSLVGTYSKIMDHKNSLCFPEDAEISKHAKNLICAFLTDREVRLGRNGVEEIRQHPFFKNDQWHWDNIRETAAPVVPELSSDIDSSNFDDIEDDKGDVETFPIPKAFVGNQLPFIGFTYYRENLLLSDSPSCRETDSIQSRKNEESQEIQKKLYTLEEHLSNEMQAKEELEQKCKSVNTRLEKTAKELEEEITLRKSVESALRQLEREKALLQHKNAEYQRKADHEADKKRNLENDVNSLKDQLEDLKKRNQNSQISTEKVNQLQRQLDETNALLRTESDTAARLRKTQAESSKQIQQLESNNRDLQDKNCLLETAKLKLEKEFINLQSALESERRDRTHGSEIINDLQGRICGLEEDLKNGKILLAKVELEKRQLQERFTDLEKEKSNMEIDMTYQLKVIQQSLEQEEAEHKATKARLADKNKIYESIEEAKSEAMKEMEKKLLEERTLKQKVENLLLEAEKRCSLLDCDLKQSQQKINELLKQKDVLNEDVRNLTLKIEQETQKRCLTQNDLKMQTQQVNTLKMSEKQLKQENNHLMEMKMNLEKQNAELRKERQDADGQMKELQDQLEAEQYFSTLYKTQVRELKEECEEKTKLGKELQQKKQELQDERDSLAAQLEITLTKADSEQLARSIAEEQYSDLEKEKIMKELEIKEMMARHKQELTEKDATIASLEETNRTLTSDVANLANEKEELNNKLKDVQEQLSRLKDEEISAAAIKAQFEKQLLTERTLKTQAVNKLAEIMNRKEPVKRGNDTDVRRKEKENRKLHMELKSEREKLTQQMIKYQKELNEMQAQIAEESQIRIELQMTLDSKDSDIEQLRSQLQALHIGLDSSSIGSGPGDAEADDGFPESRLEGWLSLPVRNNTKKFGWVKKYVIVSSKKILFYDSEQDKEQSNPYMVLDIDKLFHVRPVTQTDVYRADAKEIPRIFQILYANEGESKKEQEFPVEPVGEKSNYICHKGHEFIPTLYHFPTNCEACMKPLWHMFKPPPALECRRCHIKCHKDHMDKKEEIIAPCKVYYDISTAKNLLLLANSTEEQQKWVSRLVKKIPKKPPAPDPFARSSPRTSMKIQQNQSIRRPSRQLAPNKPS
PCTK1, sequence (Q00536 whole entry, species assumed): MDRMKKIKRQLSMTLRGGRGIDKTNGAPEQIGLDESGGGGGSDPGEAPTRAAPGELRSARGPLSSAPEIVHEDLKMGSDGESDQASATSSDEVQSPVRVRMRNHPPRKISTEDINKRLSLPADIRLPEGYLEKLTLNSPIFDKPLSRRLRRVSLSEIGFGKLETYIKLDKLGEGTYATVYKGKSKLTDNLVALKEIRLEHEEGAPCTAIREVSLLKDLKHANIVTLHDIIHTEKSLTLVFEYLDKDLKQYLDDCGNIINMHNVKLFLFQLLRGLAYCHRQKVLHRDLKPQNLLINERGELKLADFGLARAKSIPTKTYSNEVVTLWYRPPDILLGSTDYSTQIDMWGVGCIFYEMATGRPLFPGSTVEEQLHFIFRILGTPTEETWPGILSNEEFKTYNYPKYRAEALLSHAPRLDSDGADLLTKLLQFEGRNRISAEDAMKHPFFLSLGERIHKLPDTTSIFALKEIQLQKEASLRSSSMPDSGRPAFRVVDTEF

## O=C(Nc1ccncc1)c1ccc(CNC2=C(Cl)C(=O)c3ccccc3C2=O)cc1 [MPT0L056]
[1]; [8]
  antitumor activity: produced significant antitumor activity
  mice with complete regression (CR): Two of six
[1]; [9]
  antitumor activity: produced significant antitumor activity
  mice with complete regression (CR): Two of six
[1]; MPT0L056 50 and 25 mg/kg, all doses tested, FIG. 4
  body weight change: without significantly body weight loss
ROCK2
  Kd: 0.58 µM
RIOK2
  Kd: 6.6 µM
DYRK1B
  Kd: 1.4 µM
JNK3
  Kd: 0.43 µM
CSNK1D
  Kd: 2 µM
PCTK1
  Kd: > 10 µM
JNK1
  Kd: 4.2 µM
[2]; MPT0L056 25 mg/kg p.o. once every day for ten days
  tumor growth delay: did not significantly express tumor growth delay
[2]; MPT0L056 50 mg/kg p.o. once every day for ten days
  antitumor activity: produced significant antitumor activity
[2]; MPT0L056 100 mg/kg p.o. once every day for ten days
  antitumor activity: produced significant antitumor activity
[2]; MPT0L056 100, 50 and 25 mg/kg, FIG. 6
  body weight change: did not significantly affect the animal body weight
[3]; AIA model, FIG. 17
  bone mineral content (BMC) loss: can prevent
  bone mineral density (BMD) loss: can prevent
[3]; MPT0L056 25 mg/kg, po, qd, day 2 to day 21, FIG. 15
  development of arthritis (micro-CT): inhibits development of arthritis
[3]; MPT0L056 25 mg/kg, po, qd, day 2 to day 21, FIG. 16
  paw swelling: significantly reduces paw swelling
[4]
  IC50: 1.21 µM
MDA-MB-231
  GI50: 2.9 µM
HCT-116
  GI50: 4.3 µM
HL-60
  GI50: 1.6 µM
Hep 3B
  GI50: 1.4 µM
[5]; MPT0L056 50 mg/kg (so in the source) p.o. once every day to the end
  antitumor activity: but not 50 mg/kg (P>0.05) produced significant antitumor activity
[5]; MPT0L056 200 mg/kg p.o. once every day to the end
  antitumor activity: produced significant antitumor activity
[5]; MPT0L056 100 and 200 mg/kg, FIG. 8
  body weight change: did not significantly affect the animal body weight
ITCH [6]
  blocking of ITCH self-ubiquitination (Lys-dependent): blocks ITCH self-ubiquitnation (Lys-dependent) efficiently
ITCH [7]
  blocking of ITCH's in vivo self-ubiquitination: blocks ITCH's in vivo self-ubiquitination

From patent US11919858B2, “Aminonapthoquinone compounds and pharmaceutical composition for blocking ubiquitination-proteasome system in diseases” (Calgent Biotechnology Co., Ltd., priority 2015, dated 2024)
